ChEMBL document CHEMBL2331252, “Facile one-pot synthesis of novel dispirooxindole-pyrrolidine derivatives and their antimicrobial and anticancer activity against A549 human lung adenocarcinoma cancer cell line” (Bioorg Med Chem Lett, 2013)
≈ marks a conversion by molar mass, not a printed value. Calls of active or inactive are those of the source. The calls are words filed in the database; no cut-off is given here.

Assays:
Salmonella typhimurium [1] = test: Antibacterial activity against Salmonella typhimurium MTCC 1251 after 24 hrs; type: functional, Salmonella enterica subsp. enterica serovar Typhimurium
Staphylococcus aureus [2] = test: Antibacterial activity against methicillin-resistant Staphylococcus aureus at 1 mg/disc after 24 hrs by disc diffusion method; type: functional
A549 [3] = test: Cytotoxicity against human A549 cells assessed as cell death at 100 ug/ml by MTT assay; type: functional
Staphylococcus aureus [4] = test: Antibacterial activity against Staphylococcus aureus MTCC 96 at 1 mg/disc after 24 hrs by disc diffusion method; type: functional
[5] = Antifungal activity against Malassezia pachydermatis at 1 mg/disc after 48 hrs by disc diffusion method; type: functional
Staphylococcus aureus [6] = test: Antibacterial activity against methicillin-resistant Staphylococcus aureus after 24 hrs; type: functional
Proteus vulgaris [7] = test: Antibacterial activity against Proteus vulgaris MTCC 1771 after 24 hrs; type: functional; conditions: MTCC 1771, 24 h
Staphylococcus aureus [8] = test: Antibacterial activity against Staphylococcus aureus MTCC 96 after 24 hrs; type: functional; conditions: MTCC 96, 24 h
Candida albicans [9] = test: Antifungal activity against Candida albicans MTCC 227 after 48 to 72 hrs; type: functional
A549 [10] = test: Cytotoxicity against human A549 cells assessed as cell death at 200 ug/ml by MTT assay; type: functional
Klebsiella pneumoniae [11] = test: Antibacterial activity against Klebsiella pneumoniae MTCC 109 after 24 hrs; type: functional; conditions: MTCC 109, 24 h
Shigella flexneri [12] = test: Antibacterial activity against Shigella flexneri MTCC 1457 at 1 mg/disc after 24 hrs by disc diffusion method; type: functional
Klebsiella pneumoniae [13] = test: Antibacterial activity against Klebsiella pneumoniae MTCC 109 at 1 mg/disc after 24 hrs by disc diffusion method; type: functional
A549 [14] = test: Cytotoxicity against human A549 cells assessed as cell death at 50 ug/ml by MTT assay; type: functional
Micrococcus luteus [15] = test: Antibacterial activity against Micrococcus luteus MTCC 106 at 1 mg/disc after 24 hrs by disc diffusion method; type: functional
Klebsiella aerogenes [16] = test: Antibacterial activity against Enterobacter aerogenes MTCC 111 after 24 hrs; type: functional
Candida albicans [17] = test: Antifungal activity against Candida albicans MTCC 227 at 1 mg/disc after 48 hrs by disc diffusion method; type: functional
Micrococcus luteus [18] = test: Antibacterial activity against Micrococcus luteus MTCC 106 after 24 hrs; type: functional
Proteus vulgaris [19] = test: Antibacterial activity against Proteus vulgaris MTCC 1771 at 1 mg/disc after 24 hrs by disc diffusion method; type: functional
Klebsiella aerogenes [20] = test: Antibacterial activity against Enterobacter aerogenes MTCC 111 at 1 mg/disc after 24 hrs by disc diffusion method; type: functional
Shigella flexneri [21] = test: Antibacterial activity against Shigella flexneri MTCC 1457 after 24 hrs; type: functional; conditions: MTCC 1457, 24 h
Salmonella typhimurium [22] = test: Antibacterial activity against Salmonella typhimurium MTCC 1251 at 1 mg/disc after 24 hrs by disc diffusion method; type: functional, Salmonella enterica subsp. enterica serovar Typhimurium
A549 [23] = test: Cytotoxicity against human A549 cells assessed as cell death by MTT assay; type: functional, cell-based
[24] = Salmonella enterica, MTCC 1251, 24 h
[25] = Salmonella enterica subsp. enterica serovar Typhimurium

Row | Structure (SMILES) | MIC (Salmonella typhimurium [1]; [24]) [µg/mL] | inhibition zone (IZ) (Staphylococcus aureus [2]) [mm] | Activity (A549 [3]) [%] | inhibition zone (IZ) (Staphylococcus aureus [4]) [mm] | inhibition [5] | MIC (Staphylococcus aureus [6]) [µg/mL] | MIC (Proteus vulgaris [7]) [µg/mL] | MIC (Staphylococcus aureus [8]) [µg/mL] | MIC (Candida albicans [9]) | Activity (A549 [10]) [%] | MIC (Klebsiella pneumoniae [11]) [µg/mL] | inhibition zone (IZ) (Shigella flexneri [12]) [mm] | inhibition zone (IZ) (Klebsiella pneumoniae [13]) [mm] | Activity (A549 [14]) [%] | inhibition zone (IZ) (Micrococcus luteus [15]) [mm] | inhibition zone (IZ) (Candida albicans [17]) [mm] | MIC (Micrococcus luteus [18]; MTCC 106, 24 h) [µg/mL] | inhibition zone (IZ) (Proteus vulgaris [19]) [mm] | MIC (Shigella flexneri [21]) [µg/mL] | inhibition zone (IZ) (Salmonella typhimurium [22]) [mm] | also measured
1 | CCN1C(=O)[C@@]2(c3ccccc31)N(C)C[C@](C#N)(C(=O)c1c[nH]c3ccccc13)[C@]21C(=O)Nc2ccccc21 | 500 (≈ 970 µM) | 11 | 18.61 | 9 | inactive | 500 (≈ 970 µM) | 500 (≈ 970 µM) | 500 (≈ 970 µM) | 500 µg/mL (≈ 970 µM) | 26.58 | 500 (≈ 970 µM) | 9 | 10 | 7.16 | 11 | 8 | 500 (≈ 970 µM) | 9 | 500 (≈ 970 µM) | 7 | MIC (Klebsiella aerogenes [16]; MTCC 111, 24 h): 500 µg/mL (≈ 970 µM); inhibition zone (IZ) (Klebsiella aerogenes [20]): 8 mm
2 | CN1C[C@](C#N)(C(=O)c2c[nH]c3ccccc23)[C@]2(C(=O)Nc3ccccc32)[C@@]12C(=O)N(Cc1ccccc1)c1ccccc12 | – | 9 | 16.03 | 11 | – | 500 (≈ 866 µM) | 500 (≈ 866 µM) | 125 (≈ 216 µM) | 500 µg/mL (≈ 866 µM) | 23.95 | 125 (≈ 216 µM) | 7 | 11 | 9.26 | 9 | 9 | 500 (≈ 866 µM) | 9 | 500 (≈ 866 µM) | – | MIC (Salmonella typhimurium [1]; [25]): inactive; inhibition zone (IZ) [5]: 10 mm; MIC (Klebsiella aerogenes [16]; MTCC 111, 24 h): 500 µg/mL (≈ 866 µM); inhibition zone (IZ) (Klebsiella aerogenes [20]): 10 mm; inhibition (Salmonella typhimurium [22]; [25]): inactive
3 | CN1C[C@](C#N)(C(=O)c2c[nH]c3ccccc23)[C@]2(C(=O)Nc3ccccc32)[C@@]12C(=O)Nc1ccc(I)cc12 | 500 (≈ 815 µM) | 8 | 9.66 | 10 | inactive | 1000 (≈ 1630 µM) | 500 (≈ 815 µM) | 500 (≈ 815 µM) | 500 µg/mL (≈ 815 µM) | 17.58 | 250 (≈ 408 µM) | 8 | 13 | 4.19 | 8 | 10 | 1000 (≈ 1630 µM) | 9 | 1000 (≈ 1630 µM) | 11 | MIC (Klebsiella aerogenes [16]): inactive; inhibition zone (IZ) (Klebsiella aerogenes [20]): 9 mm
4 | CN1C[C@](C#N)(C(=O)c2c[nH]c3ccccc23)[C@]2(C(=O)Nc3ccccc32)[C@@]12C(=O)Nc1ccc(Cl)cc12 | 500 (≈ 958 µM) | 8 | 7.38 | 9 | inactive | 500 (≈ 958 µM) | 250 (≈ 479 µM) | 500 (≈ 958 µM) | 500 µg/mL (≈ 958 µM) | 13.15 | 125 (≈ 239 µM) | 11 | 14 | 3.58 | 10 | 9 | 1000 (≈ 1920 µM) | 13 | 1000 (≈ 1920 µM) | 8 | MIC (Klebsiella aerogenes [16]): inactive; inhibition (Klebsiella aerogenes [20]): inactive
5 | CCCCCCN1C(=O)[C@@]2(c3ccccc31)N(C)C[C@](C#N)(C(=O)c1c[nH]c3ccccc13)[C@]21C(=O)Nc2ccccc21 | 500 (≈ 875 µM) | 10 | 56.74 | 11 | inactive | 500 (≈ 875 µM) | 500 (≈ 875 µM) | 125 (≈ 219 µM) | inactive | 62.03 | 125 (≈ 219 µM) | 10 | 11 | 48.03 | 10 | – | 500 (≈ 875 µM) | 9 | 500 (≈ 875 µM) | 9 | MIC (Klebsiella aerogenes [16]; MTCC 111, 24 h): 500 µg/mL (≈ 875 µM); inhibition (Candida albicans [17]): inactive; inhibition zone (IZ) (Klebsiella aerogenes [20]): 9 mm
6 | CN1C(=O)[C@@]2(c3cc(I)ccc31)N(C)C[C@](C#N)(C(=O)c1c[nH]c3ccccc13)[C@]21C(=O)Nc2ccccc21 | 500 (≈ 797 µM) | 12 | 12.66 | 11 | – | 125 (≈ 199 µM) | 500 (≈ 797 µM) | 125 (≈ 199 µM) | 500 µg/mL (≈ 797 µM) | 26.85 | 500 (≈ 797 µM) | 10 | 9 | 4.34 | 11 | 9 | 125 (≈ 199 µM) | 9 | 500 (≈ 797 µM) | 10 | inhibition zone (IZ) [5]: 11 mm; MIC (Klebsiella aerogenes [16]; MTCC 111, 24 h): 125 µg/mL (≈ 199 µM); inhibition zone (IZ) (Klebsiella aerogenes [20]): 13 mm
7 | C#CCN1C(=O)[C@@]2(c3ccccc31)N(C)C[C@](C#N)(C(=O)c1c[nH]c3ccccc13)[C@]21C(=O)Nc2ccccc21 | 500 (≈ 951 µM) | 8 | 59.31 | 12 | inactive | 500 (≈ 951 µM) | 500 (≈ 951 µM) | 125 (≈ 238 µM) | inactive | 67.67 | 62.5 (≈ 119 µM) | 8 | 14 | 55.22 | – | – | – | 10 | 500 (≈ 951 µM) | 9 | inhibition (Micrococcus luteus [15]): inactive; MIC (Klebsiella aerogenes [16]): inactive; inhibition (Candida albicans [17]): inactive; MIC (Micrococcus luteus [18]): inactive; IC50 (A549 [23]): 50 µg/mL (≈ 95.1 µM); inhibition (Klebsiella aerogenes [20]): inactive
8 | Cc1ccc2c(c1)[C@]1(C(=O)N2C)N(C)C[C@](C#N)(C(=O)c2c[nH]c3ccccc23)[C@]12C(=O)Nc1ccccc12 | 500 (≈ 970 µM) | 8 | 10.73 | 9 | inactive | 500 (≈ 970 µM) | 125 (≈ 242 µM) | 500 (≈ 970 µM) | 500 µg/mL (≈ 970 µM) | 15.12 | 125 (≈ 242 µM) | 11 | 11 | 0.66 | 10 | 8 | 500 (≈ 970 µM) | 12 | 125 (≈ 242 µM) | 9 | MIC (Klebsiella aerogenes [16]; MTCC 111, 24 h): 125 µg/mL (≈ 242 µM); inhibition zone (IZ) (Klebsiella aerogenes [20]): 13 mm
